Laboratory results reported in US4029692A, “Steroid carboxylic acids and derivatives” (priority 1975, dated 1977).

What was measured:
[1] = system: hind paw oedema (Mycobacterium butyricum); assay: Adjuvant-paw oedema test; type: in vivo, Lewis rats (female); settings: in Rattus norvegicus, 50% oedema inhibition, given immediately before and 24 hours after, paw diameter at 48 hours
Description: This test was carried out on female Lewis rats weighing 130-150 g. The oedema was caused by the subplantar injection of Mycobacterium butyricum in the right hind paw (0.5 mg of M. butyricum/0.1 ml of liquid paraffin). The D-homosteroids (suspended in 0.5% tragacanth/0.9% sodium chloride) were administered immediately before and 24 hours after the establishment of the oedema. The paw diameter was measured before and 48 hours after the establishment of the oedema. The ED50, namely the dosage which brings about a 50% oedema inhibition, was determined by means of a graph.

[2] = system: experimentally hyperemiated skin; assay: Vasoconstriction test; type: in vivo; settings: concentration 0.1%, visual estimate, hyperemiated non-treated skin = 0, non-hyperemiated skin = 100; for Vasoconstriction, colour value, 4 hrs.: after 4 hours; for Vasoconstriction, colour value, 8 hrs.: after 8 hours
Description: J. Derm. 69, 11 (1957)]. In this test, the degree of the vasoconstriction in relation to the time was estimated visually (after 4 and 8 hours). The colour value of the hyperemiated non-treated skin was rated as 0 and the colour value of the non-hyperemiated skin was rated as 100. The D-homosteroids were used in concentration of 0.1%.

[3] = system: thymus weight; assay: Thymolysis test (thymus weight reduction); type: in vivo, rats (female); settings: Rattus norvegicus, 120 h; 50% reduction in the thymus weight; rats of the Felt pellet test; oral on 4 successive days
Description: (§1) 2 felt pellets were implanted under the skin (scapula region) in female rats (90-110 g) under ether narcosis. The D-homosteroids were administered orally on 4 successive days commencing on the day of the implantation. On the fifth day the rats were killed, the granulomas which formed were removed, dried and weighed. The ED40, namely that dosage which gave a 40% reduction of the granulation weight, was determined. The thymus and kidney fresh weight as well as the weight-change were also determined.
Rats employed in the Felt pellet test were used for this test. The ED50, namely that dosage which gave a 50% reduction in the thymus weight, was determined.

[4] = system: granulomas (felt pellets implanted under the skin); assay: Felt pellet test (granulation weight reduction); type: in vivo, rats (female); settings: Rattus norvegicus, 120 h; 40% reduction of the granulation weight; oral on 4 successive days
Description: as §1

Structure (SMILES) | ED50 [1] [mg/kg] | Vasoconstriction, colour value, 4 hrs. [2] | Vasoconstriction, colour value, 8 hrs. [2] | ED50 [3] [mg/kg] | ED40 [4] [mg/kg]
COC(=O)[C@@]1(OC(C)=O)CCC[C@H]2[C@@H]3CCC4=CC(=O)C=C[C@]4(C)[C@@]3(F)[C@@H](O)C[C@@]21C [17aα-acetoxy-9α-fluoro-11β-hydroxy-3-oxo-D-homoandrosta-1,4-diene-17aβ-carboxylic acid methyl ester] | 1.3 | 63 | 77 | 0.9 | 9
COC(=O)[C@@]1(OC(C)=O)CCC[C@H]2[C@@H]3CCC4=CC(=O)CC[C@]4(C)[C@H]3[C@@H](O)C[C@@]21C [17aα-acetoxy-11β-hydroxy-3-oxo-D-homoandrost-4-ene-17aβ-carboxylic acid methyl ester] | – | 72 | 70 | – | –
COC(=O)[C@@]1(OC(C)=O)CCC[C@H]2[C@@H]3CCC4=CC(=O)C=C[C@]4(C)[C@H]3[C@@H](O)C[C@@]21C [17aα-acetoxy-11β-hydroxy-3-oxo-D-homoandrosta-1,4-diene-17aβ-carboxylic acid methyl ester] | 3.5 | 70 | 77 | 0.65 | 3
